Molecules are shown by their SMILES.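 A five-concentration, 48-hour dose response in 96-well plates underlies each endpoint, interpolated linearly between surrounding concentrations. TGI marks complete inhibition of growth.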

Among the test systems are SK-OV-3 ovarian; 786-0 renal; OVCAR-3 ovarian; SF-268 CNS; A498 renal; OVCAR-4 ovarian; MCF7 breast; HCT-116 colon; NCI-H226 lung; NCI-H522 lung.
Test in all cases: inhibition of tumour cell growth, NCI panel, 48 h

Regarding `O=C1[C@H](O)[C@@H]2C(O)O[C@H]3[C@@H]2N1C[C@H]3[Si](c1ccccc1)(c1ccccc1)c1ccccc1` (some centres undefined), the TGI in the experiment with SK-OV-3 ovarian, in the experiment on 786-0 renal, in the experiment with OVCAR-3 ovarian, in the experiment on SF-268 CNS, with A498 renal and with OVCAR-4 ovarian was above 100 µM throughout. Further, the TGI in the experiment on MCF7 breast, with HCT-116 colon and with NCI-H226 lung was above 100 µM throughout.

`O=C(Nc1ccccc1)N(C1=NCC(CI)S1)c1ccc(F)c(F)c1` (centres undefined): the TGI in the experiment with SK-OV-3 ovarian, in the experiment with 786-0 renal, with OVCAR-3 ovarian, in the experiment with SF-268 CNS, in the experiment with A498 renal and in the experiment on OVCAR-4 ovarian was above 100 µM throughout. Further, the TGI in the experiment with MCF7 breast and in the experiment with HCT-116 colon was above 100 µM throughout.

On to `O=c1[nH]c2nc3ccccc3c(=O)n2/c1=C/c1ccc(Cl)cc1`, for which the TGI in the experiment on SK-OV-3 ovarian, in the experiment with 786-0 renal, in the experiment on OVCAR-3 ovarian, in the experiment on SF-268 CNS, with OVCAR-4 ovarian and in the experiment with MCF7 breast was above 100 µM each time. In addition, the TGI was above 100 µM in the experiment on HCT-116 colon and 71.8 µM in the experiment on NCI-H522 lung.

Turning to `CCn1nc(C)c2c1C(=O)NCC(=O)N2`, the TGI in the experiment with SK-OV-3 ovarian, in the experiment on OVCAR-3 ovarian, with SF-268 CNS, in the experiment with A498 renal, in the experiment with OVCAR-4 ovarian and in the experiment with HCT-116 colon was above 100 µM throughout. Further, in the experiment on NCI-H522 lung, the TGI is above 100 µM.

As for `CNC(C)(C)Cc1ccc(Cl)cc1`, the TGI in the experiment on SK-OV-3 ovarian, in the experiment with 786-0 renal, in the experiment on OVCAR-3 ovarian, with SF-268 CNS, in the experiment with A498 renal and in the experiment with OVCAR-4 ovarian was above 100 µM in each case. In addition, the TGI in the experiment on HCT-116 colon and in the experiment with NCI-H522 lung was above 100 µM throughout.

For `c1ccc(-c2csc3c4ccccc4c4ccccc4[n+]23)cc1`, the TGI is 38.5 µM in the experiment with SK-OV-3 ovarian; 21 µM in the experiment on 786-0 renal; 5.29 µM with OVCAR-3 ovarian; 9.65 µM in the experiment on SF-268 CNS; 33.4 µM in the experiment with A498 renal; 18.3 µM in the experiment with OVCAR-4 ovarian. The results for the TGI in the experiment with HCT-116 colon, in the experiment with NCI-H522 lung and in the experiment on NCI-H226 lung were 12.1 µM, 7.12 µM and 11.5 µM, respectively.

As for `N#CCCN(CCC#N)c1ccc(/C=C2\N=C(c3ccccc3)N(c3ccc(F)cc3)C2=O)cc1`, the TGI with SK-OV-3 ovarian, in the experiment with 786-0 renal, with OVCAR-3 ovarian, with SF-268 CNS, in the experiment with A498 renal and in the experiment on OVCAR-4 ovarian was above 100 µM each time. Also, the TGI in the experiment with MCF7 breast, with HCT-116 colon and in the experiment on NCI-H226 lung was above 100 µM each time.

On to `NC(=O)Nc1c(Cl)cc(S(N)(=O)=O)cc1Cl`, for which the TGI in the experiment on SK-OV-3 ovarian, with 786-0 renal, in the experiment on OVCAR-3 ovarian, in the experiment with SF-268 CNS, with OVCAR-4 ovarian and with MCF7 breast was above 100 µM in each case. Further, the TGI in the experiment with HCT-116 colon, in the experiment with NCI-H522 lung and in the experiment on NCI-H226 lung was above 100 µM throughout.

With `CC(C)(C)c1ccccc1N1C(=O)c2ccc3c4c(ccc(c24)C1=O)N(c1ccccc1C(C)(C)C)C3=O`, the TGI in the experiment on SK-OV-3 ovarian, with 786-0 renal, in the experiment with OVCAR-3 ovarian, with SF-268 CNS, in the experiment on OVCAR-4 ovarian and in the experiment on MCF7 breast was above 100 µM throughout. The TGI in the experiment on HCT-116 colon and in the experiment on NCI-H522 lung was above 100 µM each time.

`Cn1nc2ccc([N+](=O)[O-])c(Cn3nnc4ccccc43)c2n1`: the TGI in the experiment on SK-OV-3 ovarian, in the experiment on 786-0 renal, in the experiment with OVCAR-3 ovarian, in the experiment on SF-268 CNS, in the experiment with A498 renal and in the experiment on OVCAR-4 ovarian was above 100 µM throughout. The TGI in the experiment with MCF7 breast, in the experiment on HCT-116 colon and in the experiment with NCI-H226 lung was above 100 µM throughout.

As for `Cc1ccc(C)c(NC(=O)C(=O)C(C(=O)c2ccc3ccccc3c2)C2OC(=O)c3ccccc32)c1` (centres undefined), the TGI in the experiment with SK-OV-3 ovarian was 48.9 µM; in the experiment on SF-268 CNS it was 23.2 µM; in the experiment with A498 renal, 47.4 µM; in the experiment with OVCAR-4 ovarian, above 100 µM; in the experiment on HCT-116 colon, 24.9 µM; in the experiment with NCI-H522 lung, 22.5 µM. Besides, in the experiment with NCI-H226 lung, the TGI turned out to be 17.2 µM.

Take `O=C(Nc1ccccc1F)c1cc2ccc(O)cc2oc1=Nc1cccc(F)c1`: the TGI in the experiment with SK-OV-3 ovarian is above 100 µM; with 786-0 renal, 30 µM; in the experiment with OVCAR-3 ovarian, 33.1 µM; with SF-268 CNS, 79.1 µM; in the experiment on A498 renal, 43.8 µM; in the experiment with OVCAR-4 ovarian it was 53.6 µM. The TGI in the experiment with MCF7 breast is 95.1 µM; in the experiment on HCT-116 colon, 24.8 µM; with NCI-H522 lung, above 100 µM.

As to `O=c1[nH]/c(=C/c2ccc(OCc3ccccc3)cn2)c(=O)[nH]/c1=C/c1ccccc1`, the TGI in the experiment with SK-OV-3 ovarian is above 100 µM; with 786-0 renal, above 100 µM; in the experiment on OVCAR-3 ovarian, above 78.6 µM; with SF-268 CNS, above 100 µM; in the experiment on A498 renal, above 100 µM; with OVCAR-4 ovarian, above 100 µM. Moreover, the TGI in the experiment with MCF7 breast and in the experiment with HCT-116 colon was above 100 µM in each case.

As to `Cn1c(=O)c2[nH]c(N/N=N/c3nncs3)nc2n(C)c1=O`, the TGI in the experiment on SK-OV-3 ovarian, in the experiment with 786-0 renal, in the experiment on OVCAR-3 ovarian, in the experiment with SF-268 CNS, in the experiment on A498 renal and with OVCAR-4 ovarian was above 100 µM in each case. In addition, the TGI in the experiment on MCF7 breast and in the experiment on HCT-116 colon was above 100 µM each time.

On to `CC1=NNC(=O)C1C1C(=O)NN=C(c2c[nH]c3ccccc23)C1Br` (centres undefined), for which the TGI with SK-OV-3 ovarian, in the experiment on 786-0 renal, in the experiment with OVCAR-3 ovarian, with SF-268 CNS, with A498 renal and in the experiment with HCT-116 colon was above 100 µM in each case. Moreover, the TGI is 92.4 µM in the experiment with NCI-H522 lung and above 100 µM in the experiment with NCI-H226 lung.

The record behind these values is PubChem BioAssay (NCI).
